# Measurements from US10385034B2, “Flavonoid IL-17A inhibitors” (THE CLEVELAND CLINIC FOUNDATION, priority 2014, dated 2019).
# “Also recorded” adds a separate entry of the source.
# Experiments:
# D4M melanoma cells = assay: Experimental melanoma lung metastasis; assay type: in vivo; details: C57BL/6, 1×10^6 D4M cells tail vein, A18 60 μg/mouse daily, day 20
# Procedure: Melanoma pulmonary metastasis is indicative of poor prognosis. The experimental lung metastasis has been used to test the ability of tumor cell migration, growth at distant sites, effects of drugs for treatment of lung metastasis. In this model, melanoma cells are injected through tail vein, and metastatic lesions can be established in the lung after 2-3 weeks. Here we used this experimental lung metastasis model to test the possible impact of A18 on melanoma re-establishment at distant lung tissue. […] melanoma cells (Jenkins et al., Pigment cell & melanoma research 27, 495-501 (2014)), (1×10^6 cells) were injected into C57BL/6 mouse through tail vein. The control group mice were injected with 200 μl PBS daily, the other group mice were injected with 60 μg A18/mouse daily. The Histological sections were obtained from lung tissue at day 20.
# Th17-mediated EAE = assay: Adoptive transfer of EAE by Th17; assay type: in vivo, mouse
# Procedure: Adoptive transfer of EAE by Th17. To prepare MOG-specific polarized Th17 cell populations, drain lymph node cells were prepared from 10-week WT C57BL/6 female mice immunized with MOG 35-55 at day 10 postimmunization. Cells were cultured for 5 days with MOG 35-55 at a concentration of […] under Th17 cell (20 ng/ml IL-23) polarizing condition. For induction of Th17-mediated EAE, 10-week WT C57BL/6J female mice were injected i.p. with 3.0×10^7 polarized MOG 35-55-specific Th17 cells/mouse with or without A18 (30 μg per mouse) 4 h after 500 Rad sublethal irradiation. A18 (30 μg per mouse) was continuously administered i.p. to the treated mice every other day after Th17 injection. At the peak of disease, the mice were sacrificed and perfused with PBS. The spinal cords were fixed in 10% formalin for staining with H&E. The Brains were removed for isolation of infiltrating cells.
# Isolation and analysis of inflammatory cells from brain. Brains were homogenized in ice-cold tissue grinders and filtered through a […] cell strainer, and the cells were collected by centrifugation at 400 g for 5 min at 4° C. Cells were resuspended in 10 ml of 30% Percoll (Amersham Bioscience) and centrifuge onto a 70% Percoll cushion in 15 ml tubes at 800 g for 30 min. Cells at the 30%-70% interface were collected and were subjected to flow cytometry. Fluorescence-conjugated CD4, CD8, CD45, Ly6G1 antibodies and isotype controls were purchased from BD Biosciences. F4/80 was obtained from Serotech.
# (§1) Real-time PCR. Total RNA was extracted from spinal cords and cultured astrocytes with TRIzol (Invitrogen) according to the manufacturer's instructions. All gene expression results are expressed as arbitrary units relative to expression of the gene encoding beta-actin.
# IL-17A-IL-17RA binding = target: T1, IL-17A-IL-17RA binding (Homo sapiens, UniProt Q96F46); assay: IL-17A-IL-17RA binding assay (ELISA); details: serial dilutions of compound
# T1 construct: human IL-17RA-Fc (extracellular domain 1-322 AA fused with Fc region of human IgG1 at the C-terminus); purchased Sino Biological Inc
# T1 sequence (Q96F46 33-322): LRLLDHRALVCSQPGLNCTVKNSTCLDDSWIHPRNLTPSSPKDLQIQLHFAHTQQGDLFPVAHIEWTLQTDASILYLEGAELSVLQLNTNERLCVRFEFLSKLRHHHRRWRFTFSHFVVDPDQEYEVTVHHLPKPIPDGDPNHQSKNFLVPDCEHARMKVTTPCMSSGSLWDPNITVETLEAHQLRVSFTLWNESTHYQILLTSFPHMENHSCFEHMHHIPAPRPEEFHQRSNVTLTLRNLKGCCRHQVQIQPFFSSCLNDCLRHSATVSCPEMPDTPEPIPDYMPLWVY
# Procedure: IL-17A-IL-17RA binding assay. ELISA plates were coated with human IL-17A or IL-17E (2 μg/ml in PBS). Human IL-17RA-Fc or human IL-17RB-Fc (150 ng/ml) were added and incubated for 1 h, followed by incubation with human HRP-conjugated anti human IgG Fc secondary antibody for 1 h. ELISA were finally developed using tetramethylbenzidine substrate.
# [1] = test system: IL-17A-induced gene expression in lung tissue; assay: Intranasal injection of IL-17A (lung inflammation); assay type: in vivo; details: BALB/c mice, A18 4 μg per mouse intranasal with IL-17A 1 μg, 4 h
# Procedure: Intranasal injection of IL-17A. Eight-week WT BALB/cJ female mice were subjected to intranasal injection of PBS, 1 μg of IL-17A with or without A18 (4 μg per mouse). […]
# as §1
# IL-17RA ECD = target: T2, IL-17RA ECD (Homo sapiens, UniProt Q96F46); assay: Surface plasmon resonance (Biacore) binding to immobilized IL-17RA; details: SPR, IL-17RA immobilized on CM5 chip
# T2 construct: using purified the extracellular domain (ECD) of human IL-17RA
# T2 sequence (Q96F46 33-320 limits assumed): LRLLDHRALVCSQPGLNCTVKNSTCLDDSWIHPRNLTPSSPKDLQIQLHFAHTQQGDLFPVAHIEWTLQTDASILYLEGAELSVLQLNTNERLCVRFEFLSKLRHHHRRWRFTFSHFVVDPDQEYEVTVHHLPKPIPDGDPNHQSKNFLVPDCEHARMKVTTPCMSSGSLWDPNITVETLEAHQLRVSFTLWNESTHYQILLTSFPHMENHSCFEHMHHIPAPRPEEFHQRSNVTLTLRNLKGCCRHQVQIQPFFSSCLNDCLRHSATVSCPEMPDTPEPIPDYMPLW
# Procedure: Surface plasmon resonance (SPR). Binding of A18 to IL-17RA was conducted on Biacore T100 instrument. Purified IL-17RA was immobilized on CM5 sensor chip using amine coupling kit (GE healthcare). A18 of different concentrations were flown over the chip in PBSPP+ buffer (20 mM Phosphate, 2.7 mM KCl, 137 mM NaCl and 0.05% P20, pH 7.4). The chip was regenerated with 2M GnHCl. Binding KD was determined by Biaevaluation software.
# [2] = A18 30 μg per mouse i.p. every other day
smiles,measurement,setting,value
"Oc1cc(O)c2cc(O)c(-c3ccc(O)c(O)c3)[o+]c2c1.[Cl-] [A18, 2-(3,4-Dihydroxyphenyl)-3,5,7-trihydroxy-1-benzopyrylium chloride]",Lung metastasis tumors,D4M melanoma cells,Fewer and smaller
same,EAE disease severity,Th17-mediated EAE; [2],attenuated
same,"Expression of IL-17-responsive inflammatory genes (CXCL1, IL6, GMCSF, Ccl20) in spinal cords",Th17-mediated EAE; [2],greatly reduced
same,Onset of EAE,Th17-mediated EAE; [2],substantially delayed
same,Infiltrated cells in spinal cords,Th17-mediated EAE; H&E staining,less infiltrated cells
same,"Infiltration of CD4+, CD8+ T cells and F4/80+ macrophages","Th17-mediated EAE; brain, flow cytometry",did not affect
same,Recruitment of Ly6G+ neutrophils,"Th17-mediated EAE; brain, flow cytometry",substantially reduced
same,Inhibition of IL-17A-IL-17RA binding,IL-17A-IL-17RA binding,excellent inhibition efficacy; also recorded: great inhibition efficacy
same,IL-17A-induced gene expression in lung,[1],greatly inhibited
same,Kd,IL-17RA ECD,225 nM
